Data on four compounds can be found in ChEMBL document CHEMBL1148588, “Anthrax lethal factor protease inhibitors: synthesis, SAR, and structure-based 3D QSAR studies” (J Med Chem, 2006).

This test addresses T1, Lethal factor (Bacillus anthracis, UniProt P15917).
T1 sequence (P15917 whole entry): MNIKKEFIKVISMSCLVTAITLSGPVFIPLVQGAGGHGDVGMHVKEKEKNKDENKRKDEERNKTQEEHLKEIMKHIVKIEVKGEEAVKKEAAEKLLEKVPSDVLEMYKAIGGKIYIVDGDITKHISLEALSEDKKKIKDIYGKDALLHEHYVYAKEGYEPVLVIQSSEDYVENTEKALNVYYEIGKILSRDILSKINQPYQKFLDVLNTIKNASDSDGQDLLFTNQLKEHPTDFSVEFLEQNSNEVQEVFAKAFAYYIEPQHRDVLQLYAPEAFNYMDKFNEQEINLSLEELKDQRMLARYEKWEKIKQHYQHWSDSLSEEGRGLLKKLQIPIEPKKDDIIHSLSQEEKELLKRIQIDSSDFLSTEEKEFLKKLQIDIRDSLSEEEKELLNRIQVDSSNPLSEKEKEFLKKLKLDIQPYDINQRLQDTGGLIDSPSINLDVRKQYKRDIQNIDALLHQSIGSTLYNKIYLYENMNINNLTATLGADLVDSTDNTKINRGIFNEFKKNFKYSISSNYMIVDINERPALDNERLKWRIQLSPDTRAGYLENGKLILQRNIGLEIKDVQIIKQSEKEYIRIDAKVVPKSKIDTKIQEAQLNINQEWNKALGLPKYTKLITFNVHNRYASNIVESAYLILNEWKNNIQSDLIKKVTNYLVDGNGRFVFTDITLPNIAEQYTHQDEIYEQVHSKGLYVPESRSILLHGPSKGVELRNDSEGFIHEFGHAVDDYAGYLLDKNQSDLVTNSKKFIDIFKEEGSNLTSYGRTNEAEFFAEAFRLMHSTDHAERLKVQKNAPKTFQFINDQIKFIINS
The test is described as follows: Inhibitory activity against anthrax lethal factor metalloprotease.

`O=C(O)CN1C(=O)/C(=C/c2ccc(-c3ccc(I)cc3)o2)SC1=S`: the half-maximal inhibitory concentration (IC50) amounted to 5.6 µM.
Regarding `CN1/C(=C/c2ccc(-c3ccc(Cl)cc3)o2)C(=O)NC1NC(=O)O` (stereo not given), the IC50 was greater than 100 µM and the “Log IC50” value was greater than -4.
For `O=C(O)CN1C(=O)S/C(=C\c2ccc(-c3ccc(Cl)cc3[N+](=O)[O-])o2)C1=O`, the midpoint of inhibition, the IC50, lay at 0.5 µM.
As for `O=C(O)CN1C(=O)S/C(=C\c2ccc(-c3cc(C(F)(F)F)ccc3Cl)o2)C1=O`, the IC50 was 5.9 µM.

In general, IC50 refers to the concentration at which inhibition is half-maximal.
